# Results from patent US7291628B2, “Treatment of cocaine abuse using N-substituted derivatives of morphinan” (McLean Hospital Corporation, priority 2001, dated 2007).
# “Also recorded” adds a separate entry of the source.
# Assays:
# [1] = molecular target: μ opioid receptor (Cavia porcellus, UniProt A0ACM8Q262); assay: competitive binding assay with [3H]DAMGO in guinea pig brain membranes; settings: for affinity for the μ opioid receptor, in words: comparator, if any, as in the value; for Ki: read-out: Ki, μ opioid receptor, [3H]DAMGO, guinea pig brain membranes
# [2] = molecular target: T1, δ opioid receptor (Cavia porcellus, UniProt A0A286XTF2); assay: competitive binding assay with [3H]naltrindole in guinea pig brain membranes
# T1 construct: from tissue; host or cells: guinea pig brain membranes
# [3] = molecular target: T2, κ opioid receptor (Cavia porcellus, UniProt P41144); assay: competitive binding assay with [3H]U69,593 in guinea pig brain membranes; settings: for affinity for the κ opioid receptor, in words: comparator, if any, as in the value; for increase in affinity at the κ opioid receptor: relative to levorphanol; for κ/δ selectivity: κ versus δ binding
# T2 construct: from tissue; host or cells: guinea pig brain membranes
structure (smiles),measurement,setting,value
Oc1ccc2c(c1)[C@@]13CCCC[C@H]1[C@@H](C2)N(CCCF)CC3 [Compound 3],"affinity for the μ opioid receptor, in words",[1],high affinity
same,Ki,[1],0.18 nM
same,Ki,[2],0.85 nM
same,Ki,[3],0.083 nM
same,"affinity for the κ opioid receptor, in words",[3],high affinity
COCCN1CC[C@]23CCCC[C@H]2[C@H]1Cc1ccc(O)cc13 [Compound 6],"affinity for the μ opioid receptor, in words",[1],high affinity
same,Ki,[1],0.11 nM
same,Ki,[3],0.094 nM
same,"affinity for the κ opioid receptor, in words",[3],high affinity
"C=CCN1CC[C@]23CCCC[C@H]2[C@H]1Cc1ccc(O)cc13 [Compound 8, levallorphan, reference compound]","change in affinity for the μ opioid receptor, in words",[1]; relative to levorphanol,almost no changes in affinity
same,"change in affinity for the δ opioid receptor, in words",[2]; relative to levorphanol,almost no changes in affinity
same,increase in affinity at the κ opioid receptor,[3],15 fold
"I/C=C/CN1CC[C@]23CCCC[C@H]2[C@H]1Cc1ccccc13 [Compound 34, N-(3-iodoprop-(2E)-enyl)morphinan]","affinity for the μ opioid receptor, in words",[1],Ki values in the picomolar range; also recorded: very high affinity
same,decreased affinity for the δ opioid receptor,[2]; in comparison to compound 9,43 fold
same,"affinity for the κ opioid receptor, in words",[3],Ki values in the picomolar range; also recorded: very high affinity
same,decreased affinity for the κ opioid receptor,[3]; in comparison to compound 9,10 fold
"I/C=C\CN1CC[C@]23CCCC[C@H]2[C@H]1Cc1ccccc13 [Compound 35, N-(3-iodoprop-(2Z)-enyl)morphinan]",decreased affinity for the μ receptor,[1]; relative to 34,100 fold
same,decreased affinity for the κ receptor,[3]; relative to 34,17 fold
"Oc1ccc2c(c1)[C@@]13CCCC[C@H]1[C@@H](C2)N(CC1CCC1)CC3 [MCL-101, reference compound]","affinity for the μ opioid receptor, in words",[1],almost the same affinity for the μ and κ opioid receptors as cyclorphan
same,increase in affinity at the μ opioid receptor,[1]; relative to levorphanol,2 fold
same,increase in affinity at the δ opioid receptor,[2]; relative to levorphanol,3 fold
same,"affinity for the κ opioid receptor, in words",[3],almost the same affinity for the μ and κ opioid receptors as cyclorphan
same,increase in affinity at the κ opioid receptor,[3],30 fold
same,κ/δ selectivity,[3],18 fold
"Oc1ccc2c(c1)[C@@]13CCCC[C@H]1[C@@H](C2)N(CC1CC1)CC3 [cyclorphan, reference compound]",κ/δ selectivity,[3],4 fold
